Test results reported in paper PMC6855212, “Antibacterial activity of synthetic 1,3‐bis(aryloxy)propan‐2‐amines against Gram‐positive bacteria” (MicrobiologyOpen, 2019).
Several values for one entry are separate records, joined by “and”; a condition that tells them apart may be missing. Equal values may be shown once. Read-outs that look alike come from different tables or passages of the source.

Columns and labels:
[1] = tested on: MRSA Strain 5749; experiment: MBC, plating of wells without growth; type: cell-based; settings: Staphylococcus aureus
Description: (§1) After incubation at 35°C for 24 hr, the colonies were counted and the percentage of inhibition was calculated. MBC is defined as the lowest compound's concentration that inhibits at least 99.9% of the bacterial cell count compared to nontreated viability control (Clinical and Laboratory Standards Institute, 1999).

[2] = tested on: MRSA Strain 6613; experiment: MBC, plating of wells without growth; type: cell-based; settings: Staphylococcus aureus
Description: as §1

[3] = tested on: S. aureus ATCC 29212; experiment: MBC, plating of wells without growth; type: cell-based; settings: Staphylococcus aureus, ATCC29212; at least 99.9% inhibition of cell count
Description: as §1

[4] = tested on: MRSA Strain 5912; experiment: MBC, plating of wells without growth; type: cell-based; settings: Staphylococcus aureus
Description: as §1

[5] = tested on: MRSA ATCC 43300; experiment: MBC, plating of wells without growth; type: cell-based; settings: Staphylococcus aureus
Description: as §1

[6] = tested on: E. faecalis ATCC 29213; experiment: MBC, plating of wells without growth; type: cell-based; settings: Enterococcus faecalis, ATCC29213; at least 99.9% inhibition of cell count
Description: as §1

[7] = tested on: S. pyogenes ATCC 19615; experiment: MBC, plating of wells without growth; type: cell-based; settings: Streptococcus pyogenes, ATCC19615; at least 99.9% inhibition of cell count
Description: as §1

[8] = tested on: MRSA Strain 6154; experiment: MBC, plating of wells without growth; type: cell-based; settings: Staphylococcus aureus
Description: as §1

[9] = tested on: MRSA Strain 6100; experiment: MBC, plating of wells without growth; type: cell-based; settings: Staphylococcus aureus
Description: as §1

[10] = Cytotoxicity, MTT reduction assay; type: cell-based; settings: African green monkey, 48 hr
Description: (§2) The cytotoxicity of active compounds to mammalian cells was assessed using the MTT reduction assay (Mosmann, 1983). Vero and BSC‐40 cells were seeded in 96‐well plates (8 × 10^4 cells per well) and incubated at 37°C and 5% CO2 atmosphere. After 24 hr of incubation, 200 μL of fresh medium containing a serial dilution of compounds (10–1.25 μg/ml) were added to the plates. After 48 hr of incubation in the same conditions, 100 μL of MTT solution in MEM or DMEM (5 mg/ml) was added to each well and incubated for 3 hr at 37°C and 5% CO2 atmosphere. The medium was removed and 100 μL of DMSO was used to solubilize formazan crystals. Absorbance at 570 nm of each well was read using a spectrophotometer (VersaMax, Molecular Devices).

[11] = tested on: Vero cells; experiment: Cytotoxicity, MTT reduction assay; type: cell-based; settings: bacterial strain not stated
Description: as §2

[12] = tested on: BSC‐40 cells; experiment: Cytotoxicity, MTT reduction assay; type: cell-based; settings: BSC‐40; bacterial strain not stated
Description: as §2

[13] = tested on: Gram‐positive bacteria (E. faecalis, S. aureus and S. pyogenes); experiment: MIC, broth microdilution, Gram‐positive bacteria taken together; type: cell-based; settings: Staphylococcus aureus; over different bacterial strains, including MRSA where stated; read-out: MIC against Gram‐positive bacteria, summary
Description: (§3) The antibacterial activity of the compounds was evaluated using the broth microdilution method in 96‐well microplates according to the Clinical and Laboratory Standards Institute protocol (CLSI, 2017). First, synthetic compounds were diluted in Mueller Hinton broth (MHB; Oxoid, Thermo Scientific, UK) to concentrations ranging from 20 to 2.5 μg/ml. The same volume of a bacterial suspension containing 10^5 CFU/ml was added to each of the previous solutions, resulting in final compound concentrations from 10 to 1.25 μg/ml. […] All conditions were tested in triplicate and the results shown are representative of three independent assays.

[14] = tested on: MRSA Strain 5749; experiment: MIC, broth microdilution; type: cell-based; settings: Staphylococcus aureus, clinical strain, read-out: MIC MRSA Strain 5749
Description: as §3

[15] = tested on: Enterococcus faecalis ATCC 29213; experiment: MIC, broth microdilution; type: cell-based; settings: for MIC: Enterococcus faecalis, ATCC29213
Description: as §3

[16] = tested on: MRSA Strain 6613; experiment: MIC, broth microdilution; type: cell-based; settings: Staphylococcus aureus, clinical strain, read-out: MIC MRSA Strain 6613
Description: as §3

[17] = tested on: MRSA Strain 5912; experiment: MIC, broth microdilution; type: cell-based; settings: Staphylococcus aureus, clinical strain, read-out: MIC MRSA Strain 5912
Description: as §3

[18] = tested on: MRSA ATCC 43300; experiment: MIC, broth microdilution; type: cell-based; settings: Staphylococcus aureus; — = no activity up to 10 μg/ml; read-out: MIC MRSA ATCC 43300
Description: as §3

[19] = tested on: Staphylococcus aureus ATCC 29212; experiment: MIC, broth microdilution; type: cell-based; settings: for MIC: Staphylococcus aureus, ATCC29212
Description: as §3

[20] = tested on: Streptococcus pyogenes ATCC 19615; experiment: MIC, broth microdilution; type: cell-based; settings: for MIC: Streptococcus pyogenes, ATCC19615
Description: as §3

[21] = tested on: MRSA Strain 6154; experiment: MIC, broth microdilution; type: cell-based; settings: Staphylococcus aureus, clinical strain, read-out: MIC MRSA Strain 6154
Description: as §3

[22] = tested on: MRSA Strain 6100; experiment: MIC, broth microdilution; type: cell-based; settings: Staphylococcus aureus, clinical strain, — = no activity up to 10 μg/ml, read-out: MIC MRSA Strain 6100
Description: as §3

[23] = tested on: MRSA strains; experiment: MIC, broth microdilution, MRSA strains taken together; type: cell-based; settings: Staphylococcus aureus; over the six MRSA strains (CPD18: four out of six); read-out: MIC against MRSA strains
Description: as §3

Question: Which results are given for Cl.NC(COc1ccc(Cl)c(Cl)c1)COc1ccc(Cl)c(Cl)c1 [CPD22, 1,3‐Bis(3,4‐dichlorophenoxy)propan‐2‐aminium chloride]?
Answer: MBC [1]: 5.99 µM; MBC [2]: 12 µM; MBC [3]: 12 µM; MBC [4]: 5.99 µM; MBC [5]: 12 µM; MBC [6]: > 23.9 µM; MBC [7]: 23.9 µM; MBC [8]: > 23.9 µM; MBC [9]: 23.9 µM; melting point: 224.1 to 225.6 °C; CC50 at 48 h ([10]; BSC-40 cells, BSC‐40, MTT, read-out: CC50 ± SD): 10.6 ± 3.16 µM; CC50 at 48 h ([10]; Vero cells, MTT, read-out: CC50): 5.47 ± 1.89 µg/mL; CC50 at 48 h ([10]; Vero cells, MTT, read-out: CC50 ± SD): 13.1 ± 4.53 µM; Selective Index (SI), higher value [11]: 2.19; Selective Index (SI), higher value [12]: 1.77; MIC [13]: 2.5 µg/mL to 5 µg/mL and 5.99 µM to 12 µM; MIC [14]: 5.99 µM; MIC ([15]; 24 hr, 35°C, — = no activity up to 10 μg/ml, read-out: MIC Enterococcus faecalis ATCC 29213): 12 µM; MIC ([15]; read-out: MIC against E. faecalis): 5 µg/mL; Antibacterial activity in initial screening, E. faecalis ([15]; concentration of 10 μg/ml): inhibited the growth; MIC [16]: 12 µM; MIC [17]: 5.99 µM; MIC [18]: 12 µM; MIC ([19]; 24 hr, 35°C, read-out: MIC Staphylococcus aureus ATCC 29212): 12 µM; MIC ([19]; read-out: MIC against S. aureus): 5 µg/mL; Antibacterial activity in initial screening, S. aureus ([19]; concentration of 10 μg/ml): inhibited the growth; MIC ([20]; 24 hr, 35°C, read-out: MIC Streptococcus pyogenes ATCC 19615): 5.99 µM; MIC ([20]; read-out: MIC against S. pyogenes): 2.5 µg/mL; Antibacterial activity in initial screening, S. pyogenes ([20]; concentration of 10 μg/ml): inhibited the growth; MIC [21]: 5.99 µM; MIC [22]: 5.99 µM; MIC [23]: 2.5 µg/mL to 5 µg/mL and 5.99 µM to 12 µM
